SMILES strings stand for the structures. Several values for one entry are separate records, joined by “and”; a condition that tells them apart may be missing. Equal values may be shown once. Where only a bound is given, the exact number is not on record here.

In this assay the test system is 186277-243-T-J2-PDC complex spheroid viability. Description: Anticancer human tumor 186277-243-T-J2-PDC patient-derived colon adenocarcinoma cell line growth inhibition. The note with it: for viability, T/C: stronger effect = lower value. The method in brief:
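Multicellular complex spheroids of tumor cells with human endothelial cells (HUVEC) and mesenchymal stem cells; the LSD1 inhibitor iadademstat was combined with standard-of-care or investigational agents. Top concentration at or near clinical Cmax, half-log dilutions; final DMSO ≤0.25%.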

The mark [1] stands for this setting: curve of first compound, second compound 0.1 µM.
Where [2] appears, read: curve of first compound, second compound 0.316 µM.
[3] abbreviates: curve of first compound, second compound 1 µM.
[4] abbreviates: curve of first compound, second compound 3.16 µM.
[5] abbreviates: curve of first compound, second compound 10 µM.
The mark [6] stands for this setting: second compound 0.1 µM, first compound 0.00949 µM.
Where [7] appears, read: second compound 0.1 µM, first compound 0.03 µM.
Where [8] appears, read: second compound 0.1 µM, first compound 0.0949 µM.
Where [9] appears, read: second compound 0.1 µM, first compound 0.3 µM.
Setting [10] is: second compound 0.1 µM, first compound 0.949 µM.
Setting [11] is: second compound 0.1 µM, first compound 3 µM.
[12] abbreviates: second compound 0.316 µM, first compound 0.00949 µM.
Where [13] appears, read: second compound 0.316 µM, first compound 0.03 µM.
The mark [14] stands for this setting: second compound 0.316 µM, first compound 0.0949 µM.
Where [15] appears, read: second compound 0.316 µM, first compound 0.3 µM.
The mark [16] stands for this setting: second compound 0.316 µM, first compound 0.949 µM.
[17] abbreviates: second compound 0.316 µM, first compound 3 µM.
The mark [18] stands for this setting: second compound 1 µM, first compound 0.00949 µM.
Setting [19] is: second compound 1 µM, first compound 0.03 µM.
[20] abbreviates: second compound 1 µM, first compound 0.0949 µM.
Where [21] appears, read: second compound 1 µM, first compound 0.3 µM.
Setting [22] is: second compound 1 µM, first compound 0.949 µM.
Where [23] appears, read: second compound 1 µM, first compound 3 µM.
Where [24] appears, read: second compound 3.16 µM, first compound 0.00949 µM.
The mark [25] stands for this setting: second compound 3.16 µM, first compound 0.03 µM.
Setting [26] is: second compound 3.16 µM, first compound 0.0949 µM.
Where [27] appears, read: second compound 3.16 µM, first compound 0.3 µM.
The mark [28] stands for this setting: second compound 3.16 µM, first compound 0.949 µM.
[29] abbreviates: second compound 3.16 µM, first compound 3 µM.
The mark [30] stands for this setting: second compound 10 µM, first compound 0.00949 µM.
Where [31] appears, read: second compound 10 µM, first compound 0.03 µM.
Where [32] appears, read: second compound 10 µM, first compound 0.0949 µM.
[33] abbreviates: second compound 10 µM, first compound 0.3 µM.
Where [34] appears, read: second compound 10 µM, first compound 0.949 µM.
[35] abbreviates: second compound 10 µM, first compound 3 µM.
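Also: 7 day exposure to compounds.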
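For viability, T/C in this document: 100% = DMSO vehicle control viability.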

As a reminder, the IC50 is the concentration at which inhibition is half-maximal. By viability, T/C is commonly meant the ratio of treated to control. Consider `COc1cc(C2c3cc4c(cc3C(OC3OC5COC(C)OC5C(O)C3O)C3COC(=O)C23)OCO4)cc(OC)c1O` (stereo unspecified) + NC1CC1c1ccc(-c2cccc(O)c2)cc1, for which the IC50 was found to be 596 nM under setting [1]; 586 nM under setting [2]; 667 nM under setting [3]; 635 nM under setting [4]; 458 nM under setting [5]. The viability, T/C was 107% under setting [6]; 134% under setting [7]; 116% under setting [8]; 73.7% under setting [9]; 36.2% under setting [10]; 17.4% under setting [11]. Further, the viability, T/C reads like this: under setting [12], 103%; under setting [13], 134%; under setting [14], 118%; under setting [15], 73%; under setting [16], 36.6%; under setting [17], 18%. Also, the viability, T/C is 99.7% under setting [18]; 134% under setting [19]; 121% under setting [20]; 80.9% under setting [21]; 38.6% under setting [22]; 17.7% under setting [23]. The viability, T/C was 100% under setting [24]; 137% under setting [25]; 133% under setting [26]; 79% under setting [27]; 39.9% under setting [28]; 17.4% under setting [29]. The viability, T/C reads like this: under setting [30], 94.3%; under setting [31], 146%; under setting [32], 119%; under setting [33], 64.1%; under setting [34], 29.9%; under setting [35], 11.2%.
With `CC(C)CC(NC(=O)CNC(=O)c1cc(Cl)ccc1Cl)B1OC(=O)CC(CC(=O)O)(C(=O)O)O1` (stereo unspecified), the viability, T/C was 99.8% and 95.4% (compound 0.000316 µM); 99.4% and 103% (compound 0.001 µM); 101% and 94.2% (compound 0.00316 µM); 70.7% and 51.2% (compound 0.01 µM); 14.8% and 2.68% (compound 0.0316 µM); 6.24% and 0.35% (compound 0.1 µM). In addition, the IC50 (curve of compound) is 15.3 nM and 10.2 nM.
`CCN(c1cc(-c2ccc(CN3CCOCC3)cc2)cc(C(=O)NCc2c(C)cc(C)[nH]c2=O)c1C)C1CCOCC1`: the viability, T/C runs as follows: (compound 0.00949 µM) 106% and 93.9%; (compound 0.03 µM) 99.2% and 112%; (compound 0.0949 µM) 108% and 96.8%; (compound 0.3 µM) 99.2% and 104%; (compound 0.949 µM) 99.2% and 108%; (compound 3 µM) 101% and 30.2%. Further, where the note is “curve of compound”, the IC50 was > 3000 nM and 2200 nM.
On to `Nc1ncn(C2CC(O)C(CO)S2)c(=O)n1` (stereo unspecified), for which the viability, T/C runs as follows: (compound 0.000949 µM) 109% and 96.1%; (compound 0.003 µM) 118% and 104%; (compound 0.00949 µM) 99.9% and 109%; (compound 0.03 µM) 83.4% and 99.1%; (compound 0.0949 µM) 37.5% and 53.4%; (compound 0.3 µM) 11.7% and 12%. Further, the IC50 (curve of compound) was 69.6 nM and 104 nM.
With `NS(=O)(=O)OCC1CC(n2ccc3c(NC4CCc5ccccc54)ncnc32)CC1O` (stereo unspecified) + NC1CCC(NC2CC2c2ccccc2)CC1, the IC50 by setting is: under setting [1], 521 nM; under setting [2], 474 nM; under setting [3], 518 nM; under setting [4], 686 nM; under setting [5], 907 nM. The viability, T/C reads like this: under setting [6], 113%; under setting [7], 96.2%; under setting [8], 85.8%; under setting [9], 65.8%; under setting [10], 33.2%; under setting [11], 9.95%. Besides, the viability, T/C is, setting by setting: under setting [12], 126%; under setting [13], 112%; under setting [14], 97.3%; under setting [15], 63%; under setting [16], 29.6%; under setting [17], 12.1%. Also, the viability, T/C runs as follows: under setting [18], 121%; under setting [19], 103%; under setting [20], 103%; under setting [21], 58.1%; under setting [22], 38.1%; under setting [23], 15.6%. The viability, T/C is 113% under setting [24]; 113% under setting [25]; 97.3% under setting [26]; 71.2% under setting [27]; 42.5% under setting [28]; 14% under setting [29]. The viability, T/C is, setting by setting: under setting [30], 112%; under setting [31], 102%; under setting [32], 92.8%; under setting [33], 73%; under setting [34], 49.8%; under setting [35], 15.1%.
On to `COc1cc(C2c3cc4c(cc3C(OC3OC5COC(C)OC5C(O)C3O)C3COC(=O)C23)OCO4)cc(OC)c1O` (stereo unspecified) + NC1CCC(NC2CC2c2ccccc2)CC1, for which the IC50 was 2710 nM under setting [1]; 2750 nM under setting [2]; over 3000 nM under setting [3]; over 3000 nM under setting [4]; over 3000 nM under setting [5]. Also, the viability, T/C is, setting by setting: under setting [6], 93%; under setting [7], 125%; under setting [8], 144%; under setting [9], 98.6%; under setting [10], 74.2%; under setting [11], 46.9%. The viability, T/C was 120% under setting [12]; 121% under setting [13]; 150% under setting [14]; 98.7% under setting [15]; 72.9% under setting [16]; 46.1% under setting [17]. Further, the viability, T/C runs as follows: under setting [18], 109%; under setting [19], 111%; under setting [20], 150%; under setting [21], 99.5%; under setting [22], 71.4%; under setting [23], 49.2%. Further, the viability, T/C is 111% under setting [24]; 111% under setting [25]; 155% under setting [26]; 104% under setting [27]; 77.6% under setting [28]; 52.3% under setting [29]. Also, the viability, T/C is 113% under setting [30]; 111% under setting [31]; 150% under setting [32]; 109% under setting [33]; 81.5% under setting [34]; 57.4% under setting [35].

Source of the values: PubChem BioAssay AID1918933 (Molecular Pharmacology Branch, DTP, NCI, 2023).
